# Results as given in the supplement of paper PMC10307832.
# Experiments:
# Assay in all cases: relative viability (nuclei count vs DMSO), 5 days (fraction); higher = more cells survive
# BGJ398 + Luminespib = compound: CCN1CCN(c2ccc(Nc3cc(N(C)C(=O)Nc4c(Cl)c(OC)cc(OC)c4Cl)ncn3)cc2)CC1 [BGJ398] + CCNC(=O)c1noc(-c2cc(C(C)C)c(O)cc2O)c1-c1ccc(CN2CCOCC2)cc1 [Luminespib] (partner 0.01 µM)
# Summary of the method: (§1)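 A single step with final 0.05% Triton X-100, 1% formaldehyde and 1 ug/ml Hoechst fixed the cells and stained nuclei 5 days after treatment. Lung cancer cell lines in 1536-well plates had been treated by pin tool the day after seeding with one drug alone or a fixed anchor-drug dose plus five library-drug doses (not always all listed) in √10 steps, and nuclei were counted on 4× images. Relative viability is the ratio of nuclei in treated wells to nuclei in vehicle wells, taken as the median of duplicate plates.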
# [1] = compound: C1=CC2=NC=CN=C2C=C1/C=C/3\C(=O)NC(=O)S3 + O=C(CCCCCCC(=O)Nc1ccccc1)NO [Vorinostat] (partner 1 µM)
# Summary of the method: as §1
# BGJ398 + Olaparib = compound: CCN1CCN(c2ccc(Nc3cc(N(C)C(=O)Nc4c(Cl)c(OC)cc(OC)c4Cl)ncn3)cc2)CC1 [BGJ398] + O=C(c1cc(Cc2n[nH]c(=O)c3ccccc23)ccc1F)N1CCN(C(=O)C2CC2)CC1 [Olaparib] (partner 8 µM)
# Summary of the method: as §1
# BGJ398 + Tozasertib = compound: CCN1CCN(c2ccc(Nc3cc(N(C)C(=O)Nc4c(Cl)c(OC)cc(OC)c4Cl)ncn3)cc2)CC1 [BGJ398] + Cc1cc(Nc2cc(N3CCN(C)CC3)nc(Sc3ccc(NC(=O)C4CC4)cc3)n2)n[nH]1 [Tozasertib] (partner 0.1 µM)
# Summary of the method: as §1
Cell Line,relative viability (BGJ398 + Luminespib; first compound 0.01 µM),relative viability (BGJ398 + Luminespib; first compound 0.03162 µM),relative viability (BGJ398 + Luminespib; first compound 0.1 µM),relative viability (BGJ398 + Luminespib; first compound 0.3162 µM),relative viability (BGJ398 + Luminespib; first compound 1 µM),relative viability ([1]; first compound 0.02 µM),relative viability ([1]; first compound 0.06325 µM),relative viability ([1]; first compound 0.2 µM),relative viability ([1]; first compound 0.6325 µM),relative viability ([1]; first compound 2 µM),relative viability (BGJ398 + Olaparib; first compound 0.01 µM),relative viability (BGJ398 + Olaparib; first compound 0.03162 µM),relative viability (BGJ398 + Olaparib; first compound 0.1 µM),relative viability (BGJ398 + Olaparib; first compound 0.3162 µM),relative viability (BGJ398 + Olaparib; first compound 1 µM),relative viability (BGJ398 + Tozasertib; first compound 0.01 µM),relative viability (BGJ398 + Tozasertib; first compound 0.03162 µM),relative viability (BGJ398 + Tozasertib; first compound 0.1 µM),relative viability (BGJ398 + Tozasertib; first compound 0.3162 µM),relative viability (BGJ398 + Tozasertib; first compound 1 µM)
NCI-H1975,0.218,0.179,0.204,0.237,0.261,0.683,0.734,0.735,0.731,0.674,0.809,0.856,0.887,0.825,0.781,0.774,0.758,0.695,0.5,0.415
NCI-H1651,0.989,0.811,0.9,0.949,0.773,0.504,0.502,0.6,0.588,0.483,0.183,0.169,0.188,0.165,0.162,0.732,0.629,0.633,0.575,0.581
NCI-H441,0.453,0.346,0.318,0.383,0.371,0.794,0.786,0.948,0.845,0.509,–,0.619,0.483,0.555,0.536,0.702,0.652,0.529,0.615,0.687
LCLC-103H,0.982,0.961,1.07,0.931,0.708,0.694,0.804,0.846,0.685,0.651,0.756,0.787,0.726,0.717,0.596,0.429,0.445,0.424,0.487,0.341
LCLC-97TM1,0.703,0.859,0.857,0.823,0.797,0.617,0.637,0.659,0.576,0.153,0.294,0.393,0.443,0.508,0.277,0.239,0.224,0.293,0.23,0.35
NCI-H727,0.365,0.467,0.367,0.345,0.314,1.23,1.15,1.23,1.22,0.679,0.707,0.629,0.717,0.653,0.641,0.574,0.751,0.816,0.585,0.605
NCI-H1355,0.683,0.705,0.793,0.735,0.696,0.584,0.571,0.623,0.631,0.519,0.714,0.769,0.736,0.729,0.7,0.57,0.566,0.455,0.491,0.538
HOP-62,0.89,0.919,1.03,0.868,0.897,0.571,0.694,0.732,0.581,0.571,0.291,0.525,0.538,0.349,0.558,0.375,0.399,0.411,0.395,0.364
NCI-H2085,0.308,0.485,0.564,0.498,0.422,0.729,0.716,0.799,0.781,0.748,0.759,0.773,0.711,0.693,0.796,0.961,0.877,0.74,0.732,0.669
